Experimental data published in patent US20230295118A1 (EnhancedBio Inc., priority 2022, published 2023).

Assays:
Type in all cases: cell-based
[1] = test system: mantle cell lymphoma cell (Mino or JeKo-1); experiment: Antiproliferative effect, MTS cell viability assay; conditions: 72 h; for IC50: mantle cell lymphoma cell (Mino or JeKo-1), MTS assay, read-out: IC50 (anti-proliferation)
Summary of the method: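 MTS read-out (formazan absorbance at 490 nm) after 72 h exposure of Mino cells to 0–1 μM compound (0.0001, 0.001, 0.01, 0.1, 1 μM). Palbociclib and abemaciclib served as positive controls.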

[2] = biological target: T1, CDK4 (Homo sapiens, UniProt P11802); experiment: CDK4 degradation (DC50, Dmax)
T1 construct: endogenous in cells
T1 sequence (P11802 whole entry): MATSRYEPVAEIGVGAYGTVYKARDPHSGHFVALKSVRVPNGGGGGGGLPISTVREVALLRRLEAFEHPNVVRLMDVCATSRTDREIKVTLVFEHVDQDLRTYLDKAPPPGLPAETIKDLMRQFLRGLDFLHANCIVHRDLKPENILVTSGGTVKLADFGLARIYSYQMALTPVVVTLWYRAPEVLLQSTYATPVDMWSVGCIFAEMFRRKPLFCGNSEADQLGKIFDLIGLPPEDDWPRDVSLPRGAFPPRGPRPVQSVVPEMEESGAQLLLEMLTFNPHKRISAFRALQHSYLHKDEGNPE

[3] = biological target: T2, CDK6 (Homo sapiens, UniProt Q00534); experiment: CDK6 degradation (DC50, Dmax)
T2 construct: endogenous in cells
T2 sequence (Q00534 whole entry): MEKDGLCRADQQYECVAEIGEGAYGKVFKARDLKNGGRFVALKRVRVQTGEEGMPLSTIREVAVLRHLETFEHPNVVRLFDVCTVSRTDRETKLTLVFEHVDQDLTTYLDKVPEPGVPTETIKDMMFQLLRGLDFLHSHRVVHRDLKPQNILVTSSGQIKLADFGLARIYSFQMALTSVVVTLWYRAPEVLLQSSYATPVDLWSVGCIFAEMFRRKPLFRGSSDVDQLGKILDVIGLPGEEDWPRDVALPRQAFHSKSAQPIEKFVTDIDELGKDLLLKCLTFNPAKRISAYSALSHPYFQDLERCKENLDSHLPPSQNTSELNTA

Row | Compound | IC50 [1] [nM] | DC50 [2] [nM] | Dmax [2] [%] | DC50 [3] [nM] | Dmax [3] [%] | inhibition of cell proliferation of Mino cells ([1]; Mino cells, 0-1 μM, result in words)
1 | CC(=O)c1c(C)c2cnc(Nc3ccc(N4CCN(CCCN(C)c5cccc6c5C(=O)N(C5CCC(=O)NC5=O)C6=O)CC4)cn3)nc2n(C2CCCC2)c1=O (stereo not drawn) [Compound 103, 4-((3-(4-(6-((6-acetyl-8-cyclopentyl-5-methyl-7-oxo-7,8-dihydropyrido[2,3-d]pyrimidin-2-yl)amino)pyridin-3-yl)piperazin-1-yl)propyl)(methyl)amino)-2-(2,6-dioxopiperidin-3-yl) isoindoline-1,3-dione] | < 50 | 50 to 200 | > 60 | 50 to 200 | > 60 | dose-dependent inhibition of cell proliferation
2 | CC(=O)c1c(C)c2cnc(Nc3ccc(N4CCN(CC5CCN(C(=O)N6CCC(c7ccc8c(c7)CN(C7CCC(=O)NC7=O)C8=O)CC6)CC5)CC4)cn3)nc2n(C2CCCC2)c1=O (stereo not drawn) [Compound 34] | > 200 | > 200 | > 50 | > 200 | > 50 | –
3 | CC(=O)c1c(C)c2cnc(Nc3ccc(N4CCN(C(=O)N5CCC(CC6CCN(c7ccc8c(c7)CN(C7CCC(=O)NC7=O)C8=O)CC6)CC5)CC4)cn3)nc2n(C2CCCC2)c1=O (stereo not drawn) [Compound 14, 3-(5-(4-((1-(4-(6-((6-acetyl-8-cyclopentyl-5-methyl-7-oxo-7,8-dihydropyrido[2,3-d]pyrimidin-2-yl)amino)pyridin-3-yl)piperazine-1-carbonyl)piperidin-4-yl)methyl)piperidin-1-yl)-1-oxoisoindolin-2-yl)piperidine-2,6-dione] | 50 to 200 | > 200 | > 50 | > 200 | > 60 | –
4 | Cc1nc2c(F)cc(-c3nc(Nc4ccc(CC5CCN(C6CCN(c7ccc8c(c7)CN(C7CCC(=O)NC7=O)C8=O)CC6)CC5)cn4)ncc3F)cc2n1C(C)C (stereo not drawn) [Compound 170, 3-(5-(4-((6-((5-fluoro-4-(4-fluoro-1-isopropyl-2-methyl-1H-benzo[d]imidazol-6-yl)pyrimidin-2-yl)amino)pyridin-3-yl)methyl)-[1,4′-bipiperidin]-1′-yl)-1-oxoisoindolin-2-yl)piperidine-2,6-dione] | < 50 | < 50 | > 80 | < 50 | > 60 | –
5 | CC(=O)c1c(C)c2cnc(Nc3ccc(N4CCN(CCCN(C)c5ccc6c(c5)C(=O)N(C5CCC(=O)NC5=O)C6=O)CC4)cn3)nc2n(C2CCCC2)c1=O (stereo not drawn) [Compound 57, 5-((3-(4-(6-((6-acetyl-8-cyclopentyl-5-methyl-7-oxo-7,8-dihydropyrido[2,3-d]pyrimidin-2-yl)amino)pyridin-3-yl)piperazin-1-yl)propyl)(methyl)amino)-2-(2,6-dioxopiperidin-3-yl)isoindoline-1,3-dione] | 50 to 200 | 50 to 200 | > 60 | 50 to 200 | > 60 | –
6 | Cc1nc2c(F)cc(-c3nc(Nc4ccc(CN5CCN(C6CN(c7ccc(C(=O)NC8CCC(=O)NC8=O)cc7)C6)CC5)cn4)ncc3F)cc2n1C(C)C (stereo not drawn) [Compound 96, N-(2,6-dioxopiperidin-3-yl)-4-(3-(4-((6-((5-fluoro-4-(4-fluoro-1-isopropyl-2-methyl-1H-benzo[d]imidazol-6-yl)pyrimidin-2-yl)amino)pyridin-3-yl)methyl)piperazin-1-yl)azetidin-1-yi)benzamide] | < 50 | < 50 | > 80 | < 50 | > 80 | –
7 | Cc1nc2c(F)cc(-c3nc(Nc4ccc(CN5CCN(CC6CCN(c7ccc(N8CCC(=O)NC8=O)cc7)CC6)CC5)cn4)ncc3F)cc2n1C(C)C [Compound 108, 1-(4-(4-((4-((6-((5-fluoro-4-(4-fluoro-1-isopropyl-2-methyl-1H-benzo[d]imidazol-6-yl)pyrimidin-2-yl)amino)pyridin-3-yl)methyl)piperazin-1-yl)methyl)piperidin-1-yl)phenyl) dihydropyrimidine-2,4(1H,3H)-dione] | < 50 | < 50 | > 80 | < 50 | > 80 | –
8 | CC(=O)c1c(C)c2cnc(Nc3ccc(N4CCN(C(=O)N5CCC(N6CCC(c7ccc8c(c7)C(=O)N(C7CCC(=O)NC7=O)C8=O)CC6)CC5)CC4)cn3)nc2n(C2CCCC2)c1=O (stereo not drawn) [Compound 7, 5-(1′-(4-(6-((6-acetyl-8-cyclopentyl-5-methyl-7-oxo-7,8-dihydropyrido[2,3-d]pyrimidin-2-yl)amino)pyridin-3-yl)piperazine-1-carbonyl)-[1,4′-bipiperidin]-4-yl)-2-(2,6-dioxopiperidin-3-yl)isoindoline-1,3-dione] | 50 to 200 | 50 to 200 | > 60 | 50 to 200 | > 60 | –
9 | CC(=O)c1c(C)c2cnc(Nc3ccc(N4CCN(C(=O)N5CCN(CCN6CCN(c7ccc8c(c7)CN(C7CCC(=O)NC7=O)C8=O)CC6)CC5)CC4)cn3)nc2n(C2CCCC2)c1=O (stereo not drawn) [Compound 22, 3-(5-(4-(2-(4-(4-(6-((6-acetyl-8-cyclopentyl-5-methyl-7-oxo-7,8-dihydropyrido[2,3-d]pyrimidin-2-yl)amino)pyridin-3-yl)piperazine-1-carbonyl)piperazin-1-yl)ethyl)piperazin-1-yl)-1-oxoisoindolin-2-yl)piperidine-2,6-dione] | > 200 | > 200 | > 60 | > 200 | > 60 | –
10 | CC(=O)c1c(C)c2cnc(Nc3ccc(N4CCN(CC5CN(c6ccc(C(=O)NC7CCC(=O)NC7=O)cc6)C5)CC4)cn3)nc2n(C2CCCC2)c1=O (stereo not drawn) [Compound 119, 4-(3-((4-(6-((6-acetyl-8-cyclopentyl-5-methyl-7-oxo-7,8-dihydropyrido[2,3-d]pyrimidin-2-yl)amino)pyridin-3-yl)piperazin-1-yl)methyl)azetidin-1-yl)-N-(2,6-dioxopiperidin-3-yl)benzamide] | < 50 | 50 to 200 | > 80 | 50 to 200 | > 80 | –

The next lines start with results.

Row | IC50 [1] [nM] | DC50 [2] [nM] | Dmax [2] [%] | DC50 [3] [nM] | Dmax [3] [%] | Compound | inhibition of cell proliferation of Mino cells ([1]; Mino cells, 0-1 μM, result in words)
11 | < 50 | < 50 | > 80 | < 50 | > 80 | Cc1nc2c(F)cc(-c3nc(Nc4ccc(CN5CCN(CC6CN(c7ccc8c(c7)CN(C7CCC(=O)NC7=O)C8=O)C6)CC5)cn4)ncc3F)cc2n1C(C)C (stereo not drawn) [Compound 95, 3-(5-(3-((4-((6-((5-fluoro-4-(4-fluoro-1-isopropyl-2-methyl-1H-benzo[d]imidazol-6-yl)pyrimidin-2-yl)amino)pyridin-3-yl)methyl)piperazin-1-yl)methyl)azetidin-1-yl)-1-oxoisoindolin-2-yl)piperidine-2,6-dione] | –
12 | 50 to 200 | 50 to 200 | > 60 | 50 to 200 | > 80 | Cc1nc2c(F)cc(-c3nc(Nc4ccc(CN5CCN(C(=O)C6CCN(c7ccc(NC8CCC(=O)NC8=O)cc7)CC6)CC5)cn4)ncc3F)cc2n1C(C)C (stereo not drawn) [Compound 156, 3-((4-(4-(4-((6-((5-fluoro-4-(4-fluoro-1-isopropyl-2-methyl-1H-benzo[d]imidazol-6-yl)pyrimidin-2-yl)amino)pyridin-3-yl)methyl)piperazine-1-carbonyl)piperidin-1-yl)phenyl)amino) piperidine-2,6-dione] | –
13 | < 50 | < 50 | > 80 | 50 to 200 | > 80 | CC(=O)c1c(C)c2cnc(Nc3ccc(N4CCN(CC5CCN(c6ccc(N7CCC(=O)NC7=O)cc6)CC5)CC4)cn3)nc2n(C2CCCC2)c1=O [Compound 112, 1-(4-(4-((4-(6-((6-acetyl-8-cyclopentyl-5-methyl-7-oxo-7,8-dihydropyrido[2,3-d]pyrimidin-2-yl)amino)pyridin-3-yl)piperazin-1-yl)methyl)piperidin-1-yl)phenyl) dihydropyrimidine-2,4(1H,3H)-dione] | –
14 | < 50 | 50 to 200 | > 80 | 50 to 200 | > 60 | CC(=O)c1c(C)c2cnc(Nc3ccc(N4CCN(C(=O)C5CN(c6ccc(NC7CCC(=O)NC7=O)cc6)C5)CC4)cn3)nc2n(C2CCCC2)c1=O (stereo not drawn) [Compound 124, 3-((4-(3-(4-(6-((6-acetyl-8-cyclopentyl-5-methyl-7-oxo-7,8-dihydropyrido[2,3-d]pyrimidin-2-yl)amino)pyridin-3-yl)piperazine-1-carbonyl)azetidin-1-yl)phenyl)amino) piperidine-2,6-dione] | –
15 | 50 to 200 | 50 to 200 | > 60 | 50 to 200 | > 60 | CC(=O)c1c(C)c2cnc(Nc3ccc(N4CCN(C5CCN(C(=O)N6CCC(CN7CCN(c8ccc9c(c8)C(=O)N(C8CCC(=O)NC8=O)C9=O)CC7)CC6)CC5)CC4)cn3)nc2n(C2CCCC2)c1=O (stereo not drawn) [Compound 86, 5-(4-((1-(4-(4-(6-((6-acetyl-8-cyclopentyl-5-methyl-7-oxo-7,8-dihydropyrido[2,3-d]pyrimidin-2-yl)amino)pyridin-3-yl)piperazin-1-yl)piperidine-1-carbonyl)piperidin-4-yl)methyl)piperazin-1-yl)-2-(2,6-dioxopiperidin-3-yl) isoindoline-1,3-dione] | –
16 | > 200 | > 200 | > 60 | > 200 | > 50 | CC(=O)c1c(C)c2cnc(Nc3ccc(N4CCN(C(=O)N5CCC(N6CCC(c7ccc8c(c7)CN(C7CCC(=O)NC7=O)C8=O)CC6)CC5)CC4)cn3)nc2n(C2CCCC2)c1=O (stereo not drawn) [Compound 8, 3-(5-(1′-(4-(6-((6-acetyl-8-cyclopentyl-5-methyl-7-oxo-7,8-dihydropyrido[2,3-d]pyrimidin-2-yl)amino)pyridin-3-yl)piperazine-1-carbonyl)-[1,4′-bipiperidin]-4-yl)-1-oxoisoindolin-2-yl)piperidine-2,6-dione] | –
